Active and inactive are the calls of the source.
Columns and labels:
[1] = target: Cytochrome P450 2C9 (Homo sapiens, UniProt P11712)
[2] = Luminescence Cell-Based Dose Retest to Confirm Inhibitors of Cancer Stem Cells. [Related pubchem assays (depositor defined):AID2717, AID2721]; type: functional; conditions: Homo sapiens
[3] = target: T1, Ubiquitin-conjugating enzyme E2 N (Homo sapiens, UniProt P61088); type: functional;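 further: Dose-response confirmation in a TR-FRET assay detecting UBC13-driven polyubiquitin chain formation, inhibition measured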
T1 sequence (P61088 whole entry): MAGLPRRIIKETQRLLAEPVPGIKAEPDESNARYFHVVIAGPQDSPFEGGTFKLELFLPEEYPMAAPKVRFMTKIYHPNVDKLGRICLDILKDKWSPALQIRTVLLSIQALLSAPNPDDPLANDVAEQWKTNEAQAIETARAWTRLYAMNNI

[4] = target: T2, Mannose-6-phosphate isomerase (Homo sapiens, UniProt P34949); assay: MPI inhibition at elevated mannose 6-phosphate – biochemical, fluorescence intensity, high mannose 6-phosphate, primary screen (AID 1220)
T2 sequence (P34949 whole entry): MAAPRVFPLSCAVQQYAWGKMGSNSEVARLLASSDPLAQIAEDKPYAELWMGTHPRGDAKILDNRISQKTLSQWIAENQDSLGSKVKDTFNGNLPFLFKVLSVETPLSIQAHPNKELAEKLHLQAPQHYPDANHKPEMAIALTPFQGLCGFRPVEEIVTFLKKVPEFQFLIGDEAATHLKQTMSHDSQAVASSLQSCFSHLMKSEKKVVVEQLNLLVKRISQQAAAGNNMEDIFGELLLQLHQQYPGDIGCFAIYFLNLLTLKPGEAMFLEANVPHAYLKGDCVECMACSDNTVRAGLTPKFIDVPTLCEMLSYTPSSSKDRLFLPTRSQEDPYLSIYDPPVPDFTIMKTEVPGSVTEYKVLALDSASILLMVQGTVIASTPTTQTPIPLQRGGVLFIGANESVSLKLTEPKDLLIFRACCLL

[5] = cells; type: functional, cell-based
[6] = cells; type: functional, cell-based; remark: listed apart in the source
[7] = target: Cytochrome P450 2C19 (Homo sapiens, UniProt P33261); assay: Cytochrome panel assay with activity outcomes. Panel member name: p450-cyp2c19 Compounds with AC50 equal or less than 10 uM are considered active; type: functional; conditions: read-out: AC50
Chain of Cytochrome P450 2C19 (P33261 whole entry): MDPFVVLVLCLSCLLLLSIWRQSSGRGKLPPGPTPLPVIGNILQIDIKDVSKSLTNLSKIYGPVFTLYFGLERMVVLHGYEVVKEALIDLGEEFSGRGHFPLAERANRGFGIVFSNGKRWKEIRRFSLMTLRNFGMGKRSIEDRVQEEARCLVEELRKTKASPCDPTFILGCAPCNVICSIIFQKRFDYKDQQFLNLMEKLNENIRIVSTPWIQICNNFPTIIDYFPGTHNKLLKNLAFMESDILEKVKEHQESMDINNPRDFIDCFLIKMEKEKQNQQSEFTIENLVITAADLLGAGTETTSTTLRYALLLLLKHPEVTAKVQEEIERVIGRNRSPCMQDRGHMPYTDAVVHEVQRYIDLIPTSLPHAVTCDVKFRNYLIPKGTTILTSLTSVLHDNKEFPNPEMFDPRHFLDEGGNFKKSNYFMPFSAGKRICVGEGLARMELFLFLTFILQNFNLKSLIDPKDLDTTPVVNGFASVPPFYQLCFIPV

[8] = test system: Streptococcus sp. 'group A'; assay: Streptococcus pyogenes SK(-)GAS viability under kanamycin – luminescence, BacTiterGlo, confirmation, counter-screen for streptokinase expression inhibitor project, dose response (AID 1900); type: functional, organism-based
[9] = target: T3, Streptokinase A (Streptococcus pyogenes serotype M1, UniProt P10520); assay: viability-normalized secreted streptokinase activity reduction – plasminogen activation absorbance, OD405, dose response (AID 1914); type: functional, Streptococcus pyogenes M1 GAS;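 further: secreted streptokinase activity via plasminogen activation per viability signal from cell pellet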
T3 sequence (P10520 whole entry): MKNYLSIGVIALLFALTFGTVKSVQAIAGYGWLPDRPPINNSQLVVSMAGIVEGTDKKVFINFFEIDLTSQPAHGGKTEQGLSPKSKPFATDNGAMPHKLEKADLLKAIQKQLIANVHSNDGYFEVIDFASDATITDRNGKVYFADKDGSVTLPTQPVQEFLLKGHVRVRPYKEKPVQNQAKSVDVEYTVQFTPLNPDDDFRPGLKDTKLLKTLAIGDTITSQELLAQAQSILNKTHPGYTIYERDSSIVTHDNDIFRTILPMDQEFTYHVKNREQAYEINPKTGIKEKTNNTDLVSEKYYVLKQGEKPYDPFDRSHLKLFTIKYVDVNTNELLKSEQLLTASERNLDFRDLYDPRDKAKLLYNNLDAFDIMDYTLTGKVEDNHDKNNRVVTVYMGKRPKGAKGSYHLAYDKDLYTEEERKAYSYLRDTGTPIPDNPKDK

[10] = test system: Streptococcus; assay: GAS UMAA2166 growth inhibition – luminescence, BacTiterGlo, counter-screen for streptokinase expression inhibitor project, dose response (AID 1915); type: functional, organism-based;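 further: potency for reduction of bacterial viability or growth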
[11] = target: T4, Replicative DNA helicase DnaB (Mycobacterium tuberculosis, UniProt P9WMR3); assay: DnaB intein splicing inhibitors, dose response, biochemical, cell-free fluorescence (AID 449749); type: functional
T4 sequence (P9WMR3 whole entry): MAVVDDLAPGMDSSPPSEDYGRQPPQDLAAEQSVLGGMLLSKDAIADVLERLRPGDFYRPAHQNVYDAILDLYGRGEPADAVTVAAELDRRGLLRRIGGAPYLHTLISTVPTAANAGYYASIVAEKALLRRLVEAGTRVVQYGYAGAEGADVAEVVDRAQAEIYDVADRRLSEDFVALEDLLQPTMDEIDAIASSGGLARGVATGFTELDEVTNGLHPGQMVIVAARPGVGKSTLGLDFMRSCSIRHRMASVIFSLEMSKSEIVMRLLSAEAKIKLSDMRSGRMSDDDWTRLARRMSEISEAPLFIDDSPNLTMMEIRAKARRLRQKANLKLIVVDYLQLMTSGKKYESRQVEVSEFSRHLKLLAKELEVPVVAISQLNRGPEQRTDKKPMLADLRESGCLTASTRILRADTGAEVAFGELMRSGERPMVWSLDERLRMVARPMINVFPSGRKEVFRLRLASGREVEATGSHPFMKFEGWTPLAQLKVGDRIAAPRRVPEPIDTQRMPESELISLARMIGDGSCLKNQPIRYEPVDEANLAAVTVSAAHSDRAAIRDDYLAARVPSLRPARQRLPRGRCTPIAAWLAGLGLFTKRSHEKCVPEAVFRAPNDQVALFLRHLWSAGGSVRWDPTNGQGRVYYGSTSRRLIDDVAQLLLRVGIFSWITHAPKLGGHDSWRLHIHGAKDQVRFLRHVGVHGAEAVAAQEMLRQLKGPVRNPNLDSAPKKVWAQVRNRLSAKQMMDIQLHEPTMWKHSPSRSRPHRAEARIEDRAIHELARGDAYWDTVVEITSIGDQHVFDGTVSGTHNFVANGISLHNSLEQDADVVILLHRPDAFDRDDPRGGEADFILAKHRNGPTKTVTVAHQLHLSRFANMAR

[12] = target: T5, Protein RecA (Mycobacterium tuberculosis, UniProt P9WHJ3); assay: Fluorescence Cell-Free Homogeneous Dose Retest to Identify Inhibitors of RecA-Intein Splicing Activity. [Related pubchem assays (depositor defined):AID2097, AID2223, AID489010, AID492950]; type: functional
T5 sequence (P9WHJ3 whole entry): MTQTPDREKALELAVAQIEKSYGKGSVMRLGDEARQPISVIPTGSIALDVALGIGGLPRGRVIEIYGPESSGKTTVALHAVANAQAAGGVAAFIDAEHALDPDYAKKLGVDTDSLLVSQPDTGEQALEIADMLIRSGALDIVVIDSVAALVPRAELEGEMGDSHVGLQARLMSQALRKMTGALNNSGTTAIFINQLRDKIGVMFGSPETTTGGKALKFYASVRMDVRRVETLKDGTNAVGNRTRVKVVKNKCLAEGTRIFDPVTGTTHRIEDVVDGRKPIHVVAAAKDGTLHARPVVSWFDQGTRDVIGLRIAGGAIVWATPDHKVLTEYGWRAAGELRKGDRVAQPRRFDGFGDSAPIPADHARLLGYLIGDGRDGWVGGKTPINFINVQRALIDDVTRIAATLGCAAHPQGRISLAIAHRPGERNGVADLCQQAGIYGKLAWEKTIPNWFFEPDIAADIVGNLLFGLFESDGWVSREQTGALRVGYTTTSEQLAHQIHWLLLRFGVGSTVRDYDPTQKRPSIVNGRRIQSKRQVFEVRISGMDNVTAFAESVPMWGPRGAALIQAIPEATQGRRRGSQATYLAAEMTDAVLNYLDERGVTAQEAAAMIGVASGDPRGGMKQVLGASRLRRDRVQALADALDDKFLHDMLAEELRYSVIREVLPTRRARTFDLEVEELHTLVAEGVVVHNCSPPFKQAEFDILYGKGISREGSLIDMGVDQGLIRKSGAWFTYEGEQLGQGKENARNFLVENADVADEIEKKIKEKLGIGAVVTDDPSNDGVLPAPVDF

[13] = target: T6, Cytochrome P450 1A2 (Homo sapiens, UniProt P05177);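 further: PubChem cytochrome P450 panel assay, CYP1A2 panel member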
T6 sequence (P05177 whole entry): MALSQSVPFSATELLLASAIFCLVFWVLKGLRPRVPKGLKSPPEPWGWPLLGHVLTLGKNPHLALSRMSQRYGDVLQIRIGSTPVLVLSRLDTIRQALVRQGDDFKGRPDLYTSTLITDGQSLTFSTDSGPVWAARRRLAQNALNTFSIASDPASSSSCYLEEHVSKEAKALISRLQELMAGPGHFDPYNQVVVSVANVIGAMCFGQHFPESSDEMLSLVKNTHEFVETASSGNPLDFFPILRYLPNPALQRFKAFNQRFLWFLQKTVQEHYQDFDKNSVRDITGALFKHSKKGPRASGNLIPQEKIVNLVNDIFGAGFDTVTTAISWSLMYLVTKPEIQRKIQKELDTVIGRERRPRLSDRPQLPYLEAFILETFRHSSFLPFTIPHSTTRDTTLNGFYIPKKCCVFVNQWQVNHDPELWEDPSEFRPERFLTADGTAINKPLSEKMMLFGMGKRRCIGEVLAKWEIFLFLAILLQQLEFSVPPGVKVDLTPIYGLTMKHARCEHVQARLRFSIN

[14] = target: Glyceraldehyde-3-phosphate dehydrogenase (Homo sapiens, UniProt P04406)
Chain of Glyceraldehyde-3-phosphate dehydrogenase (P04406 whole entry): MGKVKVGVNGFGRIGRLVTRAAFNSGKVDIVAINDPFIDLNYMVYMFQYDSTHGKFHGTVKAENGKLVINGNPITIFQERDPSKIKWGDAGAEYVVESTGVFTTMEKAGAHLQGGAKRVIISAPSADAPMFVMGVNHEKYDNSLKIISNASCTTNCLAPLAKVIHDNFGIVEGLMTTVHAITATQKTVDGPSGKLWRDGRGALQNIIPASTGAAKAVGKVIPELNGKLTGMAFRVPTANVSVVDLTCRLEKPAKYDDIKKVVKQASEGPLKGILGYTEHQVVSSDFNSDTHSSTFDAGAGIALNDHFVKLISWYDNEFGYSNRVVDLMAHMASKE

[15] = Luminescence Cell-Based Dose Response HTS to Identify Activators of Luciferase Translation or Activity in H4 […] Cells. [Related pubchem assays: 1829 (Project Summary), 1814 (Primary HTS)]; type: functional
[16] = test system: H4; assay: Luminescence Cell-Based Dose Response HTS to Identify Activators of 5'UTR Stem-Loop Driven Prion Protein mRNA Translation in H4 Neuroglioblastoma Cells. [Related pubchem assays: 1829 (Project Summary), 1814 (Primary HTS)]; type: functional; conditions: Homo sapiens
[17] = target: T7, Heat shock factor protein 1 (Mus musculus, UniProt P38532); assay: decrease of HSF1-responsive luciferase luminescence – cell-based, NIH3T3, dose retest, confirmation (AID 2382); type: functional;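 further: NIH3T3 fibroblasts with HSF1-driven luciferase reporter stressed by proteasome inhibitor MG132; luminescence from HSF1-driven luciferase expression after 8 hours of MG132 stress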
T7 sequence (P38532 whole entry): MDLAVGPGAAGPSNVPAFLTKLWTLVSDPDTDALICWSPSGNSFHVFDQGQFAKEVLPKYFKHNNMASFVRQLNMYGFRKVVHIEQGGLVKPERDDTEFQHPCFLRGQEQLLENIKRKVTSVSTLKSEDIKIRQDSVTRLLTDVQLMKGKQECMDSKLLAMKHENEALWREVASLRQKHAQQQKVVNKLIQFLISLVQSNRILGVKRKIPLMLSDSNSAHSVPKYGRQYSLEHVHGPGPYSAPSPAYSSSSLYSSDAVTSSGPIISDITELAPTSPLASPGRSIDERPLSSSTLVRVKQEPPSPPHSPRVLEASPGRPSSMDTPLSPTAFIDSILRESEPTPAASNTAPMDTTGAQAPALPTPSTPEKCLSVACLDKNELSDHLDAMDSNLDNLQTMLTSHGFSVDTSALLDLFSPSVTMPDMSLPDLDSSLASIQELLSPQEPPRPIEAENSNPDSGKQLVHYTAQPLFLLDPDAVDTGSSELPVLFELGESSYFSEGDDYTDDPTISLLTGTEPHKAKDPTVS

Chain of Cytochrome P450 2C9 (P11712 whole entry): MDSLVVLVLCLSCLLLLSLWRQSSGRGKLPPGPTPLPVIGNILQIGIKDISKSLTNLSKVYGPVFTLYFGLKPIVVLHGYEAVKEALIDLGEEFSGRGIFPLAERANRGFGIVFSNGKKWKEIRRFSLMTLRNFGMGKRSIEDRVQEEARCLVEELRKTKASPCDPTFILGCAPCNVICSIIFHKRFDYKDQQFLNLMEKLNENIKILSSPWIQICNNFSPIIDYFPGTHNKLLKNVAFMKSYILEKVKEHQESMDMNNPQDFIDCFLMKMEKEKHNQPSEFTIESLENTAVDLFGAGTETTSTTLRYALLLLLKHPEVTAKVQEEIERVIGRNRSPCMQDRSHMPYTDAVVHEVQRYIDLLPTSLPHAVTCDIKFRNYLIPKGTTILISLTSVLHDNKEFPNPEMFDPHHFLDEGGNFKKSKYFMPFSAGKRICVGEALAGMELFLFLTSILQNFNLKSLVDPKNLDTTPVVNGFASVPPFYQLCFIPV

O=C(Cc1c[nH]c2ccccc12)OCC(=O)c1ccccc1
AC50 [1]: inconclusive

Cc1cc(N2CCN(C)CC2)nc2ccc(NC(=S)N3CCN(c4ccc(F)cc4)CC3)cc12
AC50 [2]: 5.34 µM (active)
IC50 [3]: > 20 µM (inactive)

COc1ccc(-n2c(=S)[nH]c3sc4c(c3c2=O)CCc2ccccc2-4)cc1
IC50 [4]: 25.7 µM (active)

COc1cc(NC(=S)Nc2cccnc2)cc(OC)c1
IC50 [4]: > 50 µM (not active)

NS(=O)(=O)c1ccc(NC(=O)c2ccc(CSc3ccccc3)o2)cc1
EC50 [5]: > 350 µM (not active)
EC50 [6]: > 350 µM (not active)

COC(=O)Nc1ccc(=O)n(Cc2c(Cl)cccc2Cl)c1
EC50 [5]: > 350 µM (not active)
EC50 [6]: > 350 µM (not active)

COc1ccc(OC)c(CNC(=O)C2CCCN(S(=O)(=O)N3CCC(C)CC3)C2)c1 (centres undefined)
EC50 [5]: > 350 µM (not active)
EC50 [6]: > 350 µM (not active)

Cc1cnc(CNc2ncnc3ccc(-c4ccccc4CN(C)C)cc23)cn1
AC50 [7]: 31.6 µM (inconclusive)
AC50 [1]: inconclusive

CN1c2ccccc2C(C)(C)C12C=Nc1c(ccc3ccccc13)O2 (centres undefined)
EC50 [8]: 3.92 µM (active)
EC50 [9]: 24 µM (active)
EC50 [10]: > 150 µM (not active)
IC50 [4]: > 50 µM (not active)
AC50 [11]: 32.4 µM (active)
EC50 [12]: 14.4 µM (active)

Cc1cc(C(=O)OCC(=O)NCCCN2CCCC2=O)c2ccccc2n1
AC50 [7]: 35.5 µM (inconclusive)
AC50 [13]: 14.1 µM (inconclusive)
AC50 [1]: inconclusive

COc1ccc(S(=O)(=O)Nc2cccnc2)c(OC)c1
IC50 [14]: > 100 µM (not active)

CN(C)C1=C(Cl)C(=O)N(c2ccc(C(F)(F)F)cc2)C1=O
IC50 [14]: > 50 µM (inconclusive)

COc1ccc(NC(=O)CSc2nc3c(c(-c4cccs4)c2C#N)CN(C)CC3)cc1OC
IC50 [4]: > 50 µM (not active)

CCOC(=O)N1CCN(C(=O)CN(C)S(=O)(=O)c2ccc3c(c2)C(C)(C)C(=O)N3C)CC1
AC50 [7]: 3.16 µM (inconclusive)
AC50 [1]: inconclusive

Cc1ccc(C)c(NC(=O)CN(C)C(=O)Cc2coc3cc(C)c(C)cc23)c1
EC50 [5]: > 350 µM (not active)
EC50 [6]: > 350 µM (not active)

NC[C@H](Cc1ccccc1)NCCc1cc(C(F)(F)F)cc(C(F)(F)F)c1
IC50 [3]: > 20 µM (inactive)

Cc1cc(/C=N/N2CCN(C)CC2)c(C)n1-c1ccc(Cl)cc1
EC50 [5]: > 350 µM (not active)
EC50 [6]: > 350 µM (not active)

CN(C)/N=C/C=C1\CCC/C(=C/c2cccs2)C1=O
EC50 [15]: 0.452 µM (active)
EC50 [5]: > 350 µM (not active)
EC50 [16]: > 120 µM (not active)
EC50 [6]: 5.27 µM (active)

O=C(NCCCCO)c1cc(-c2ccc(Cl)cc2Cl)n[nH]1
IC50 [14]: > 10 µM (inconclusive)

Cn1nc(N)c2c(-c3ccccc3)c(C#N)c(N)nc21
EC50 [17]: > 195 µM (not active)
IC50 [3]: > 20 µM (inactive)

Source: ChEMBL document CHEMBL1201862, “PubChem BioAssay data set” (2004)
